From patent US20230149355A1, “COMPOSITIONS AND METHODS FOR MODULATING TRP CHANNEL ACTIVITY” (priority 2020, published 2023)
pEC50: −log10 of the molar value.

Assays:
mouse duodenum = assay: Amperometric measurement of 5-HT secretion, mouse small intestine; settings: 10 mM Indole
Text: These experiments using C57BL/6J mice were approved by the Flinders University Animal Welfare Committee (number 965-19) and human ileum tissue was collected from resected small and large intestine from patients that gave written informed consent under the approval of the Southern Adelaide Clinical Human Research Ethics Committee (number 50.07) as previous (Sun et al., 2019a). Mice were euthanized at 8 to 12 weeks by isoflurane overdose followed by cervical dislocation. The duodenum was removed and placed in Krebs solution oxygenated with 95% O2, 5% CO2. A midline incision was made along the duodenum to create a flat sheet, the section was pinned with the mucosal side up in an organ bath lined with Sylgard and containing oxygenated Krebs solution. Serotonin release was measured using amperometry. A carbon-fibre electrode (5-μm diameter, ProCFE; Dagan Corporation, Minneapolis, Minn.), was lowered above the mucosa and 400 mV potential was applied to the electrode causing oxidation of serotonin (Zelkas et al., 2015). […] The change in amplitude due to serotonin oxidation was recorded using an EPC-10 amplifier and Pulse software (HEKA Electronic, Lambrecht/Pfalz, Germany), and samples at 10 kHz and low-pass filtered at 1 kHz. Data was assessed as peak current during each treatment. Data was analyzed comparing all groups using one-way ANOVA with Tukey's post-hoc test. […]

mouse TRPA1 = biological target: T1, mouse TRPA1 (Mus musculus, UniProt Q8BLA8); assay: Ca2+ influx (Calcium 6 fluorescence) in mouse Trpa1-expressing HEK-293T cells; format: cell-based
T1 construct: expressed in transfected cells; host or cells: HEK-293T
T1 sequence (Q8BLA8 whole entry): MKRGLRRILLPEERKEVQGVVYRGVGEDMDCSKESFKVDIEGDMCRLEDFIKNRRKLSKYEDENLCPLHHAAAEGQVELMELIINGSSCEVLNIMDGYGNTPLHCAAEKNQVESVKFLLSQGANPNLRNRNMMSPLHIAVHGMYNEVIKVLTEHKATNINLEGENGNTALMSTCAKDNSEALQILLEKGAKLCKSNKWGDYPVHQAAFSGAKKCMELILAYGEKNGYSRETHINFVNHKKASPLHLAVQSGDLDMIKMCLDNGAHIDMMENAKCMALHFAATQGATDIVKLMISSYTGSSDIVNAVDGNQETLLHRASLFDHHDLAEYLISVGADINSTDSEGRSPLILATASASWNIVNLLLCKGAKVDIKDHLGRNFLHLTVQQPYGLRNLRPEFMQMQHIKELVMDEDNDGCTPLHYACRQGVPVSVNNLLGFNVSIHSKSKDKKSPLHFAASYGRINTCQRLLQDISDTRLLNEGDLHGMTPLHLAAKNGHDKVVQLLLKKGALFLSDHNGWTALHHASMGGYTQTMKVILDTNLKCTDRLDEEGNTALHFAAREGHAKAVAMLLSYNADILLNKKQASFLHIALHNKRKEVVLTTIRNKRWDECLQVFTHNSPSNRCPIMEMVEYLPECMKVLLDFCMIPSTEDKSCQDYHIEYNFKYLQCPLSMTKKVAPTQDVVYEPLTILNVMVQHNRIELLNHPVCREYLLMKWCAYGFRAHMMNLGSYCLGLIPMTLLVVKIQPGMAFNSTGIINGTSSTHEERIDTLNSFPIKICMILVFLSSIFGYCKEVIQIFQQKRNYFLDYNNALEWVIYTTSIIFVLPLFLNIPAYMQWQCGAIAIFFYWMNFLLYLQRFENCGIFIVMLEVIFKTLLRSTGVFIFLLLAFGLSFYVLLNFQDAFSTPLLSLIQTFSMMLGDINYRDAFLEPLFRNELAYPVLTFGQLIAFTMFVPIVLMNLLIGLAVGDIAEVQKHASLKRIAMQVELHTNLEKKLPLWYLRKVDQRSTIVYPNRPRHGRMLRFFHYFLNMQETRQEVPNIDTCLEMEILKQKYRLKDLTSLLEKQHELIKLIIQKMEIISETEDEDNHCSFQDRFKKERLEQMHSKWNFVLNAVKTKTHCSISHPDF
Method: HEK-293T cells were cultured in DMEM (Thermofisher Scientific, Waltham, Mass.) and supplemented with 10% fetal bovine serum (FBS) (Thermofisher Scientific), penicillin (100 units/mL) and streptomycin (0.1 mg/mL). Cells were plated on 100 mm tissue culture plates coated with poly-D-lysine (Sigma Aldrich, Saint Louis, Mo.) and grown to ˜60% confluence. The cells were transiently transfected for 16-24 hours with either human or mouse orthologs of TRPA1 using Fugene 6 transfection reagents and Opti-MEM (Thermofisher Scientific) according to the manufacturer's protocol. Subsequently, cells were trypsinized, re-suspended and re-plated onto poly-D-lysine coated 96-well plates (Krystal black walled plates, Genesee Scientific) at 5×10^5 cells/mL (100 μL/well) and allowed to grow for another 16-20 hrs prior to the experiments. Cells were maintained as monolayers in a 5% CO2 incubator at 37° C.
Measurements of changes in intracellular Ca^2+ concentrations ([Ca^2+]i) were performed as described previously (Caceres et al., 2017). In brief, cells in 96-well plates were loaded with Calcium 6, a no-wash fluorescent indicator, for 1.5 hrs (Molecular Devices, San Jose, Calif.) and then transferred to a FlexStation III benchtop scanning fluorometer chamber (Molecular Devices). Fluorescence measurements in the FlexStation were performed at 37° C. (Ex:485 nm, Em: 525 nm at every 1.8 s). After recording baseline fluorescence, agonists (indole, IAld, cinnamaldehyde) were added and fluorescence was monitored for a total of 60 s. […] The change in fluorescence was measured as Fmax-F0, where Fmax is the maximum fluorescence and F0 is the baseline fluorescence measured in each well.

intestinal motility = assay: Zebrafish intestinal motility (PIV-Lab velocity analysis); format: in vivo; settings: indole stimulation
Text: The zebrafish intestinal motility is quantified through recorded image series of zebrafish intestine using the method similar as previously described (Ganz et al., 2018). Intestinal p velocity and v velocity were used to estimate intestinal motility in zebrafish as previously described using the PIV-Lab MATLAB app (Ganz et al., 2018). A positive value of the μ velocity indicates an anterograde intestinal movement and a negative value of the μ velocity indicates a retrograde intestinal movement. The time-course p velocity number is plotted as heatmaps. When calculating the mean velocity, only the mean velocity magnitude was calculated, which therefore doesn't account for the movement direction. The MTrackJ FIJI plugin was used to quantify the mean velocity magnitude (Meijering et al., 2012).

zebrafish EECs (Trpa1) = assay: In vivo EEC calcium, Tg(neurod1:Gcamp6f) zebrafish; settings: trpa1b-dependent
Method: To record in vivo EEC activity using the Tg(neurod1:Gcamp6f) system, a published protocol with slight modification (Ye et al., 2019) was used. In brief, unanesthetized zebrafish larvae were gently mounted in 3% methylcellulose. Excess water was removed and zebrafish larvae were gently positioned with right side up. Zebrafish were then moved onto an upright Leica M205 FA fluorescence stereomicroscope equipped with a Leica DFC 365FX camera. The zebrafish larvae were allowed to recover for 2 mins before 100 μL of test agent was pipetted directly in front of the mouth region. Images were then recorded every 10 seconds. The data shown in FIG. 2O-R, depicting the EEC responses to E. tarda stimulation, were obtained by mounting unanesthetized zebrafish larvae in 1% low melting agarose. A window (5×5 mm) was cut to expose the head region of the zebrafish. 10 μL of E. tarda culture [˜10^9 Colony Forming Unit (CFU)] were delivered at the zebrafish mouth area. Images were recorded every 10 secs for 20 mins. Image processing and analysis were performed using FIJI software. Time-lapse fluorescence images were first aligned to correct for experimental drift using the plugin “align slices in stack.” Normalized correlation coefficient matching and bilinear interpolation methods for subpixel translation were used for aligning slices (Tseng et al., 2012). The plugin “rolling ball background subtraction” with the rolling ball radius=10 pixels was used to remove the large spatial variation of background intensities. The Gcamp6f fluorescence intensity in the intestinal region was then calculated for each time point. The ratio of maximum fluorescence (Fmax) and the initial fluorescence (F0) was used to measure EEC calcium responses.
For EEC Trpa1 activation using the Optovin platform, zebrafish larvae were treated with 10 μM Optovin overnight. Following Optovin treatment, unanesthetized zebrafish were mounted in 1% LMA and imaged under a 780 upright Zeiss confocal microscope using 20× water objective lenses. For all the experiments, the mid-intestine region was imaged (FIG. 10D). The intestinal epithelium was selected as the region of interest (ROI) (FIG. 10A). Serial images were obtained at 1 s/frame. A 405 nm pulse of light was applied to the ROI at 1 pulse/10 s. For some experiments (FIG. 7D-F, FIG. 10B-G), the images were obtained at 10 s/frame. When measuring Optovin effects on intestinal motility in ret−/−, sox10−/− or tph1b−/− zebrafish larvae, embryos were collected from heterozygous zebrafish. ret−/− zebrafish were identified by lack of ENS and deflated swim bladder (Knight et al., 2011), sox10−/− zebrafish were identified by lack of pigment (Rolig et al., 2017), and tph1b−/− zebrafish were identified by PCR-based genotyping (Tornini et al., 2017).
To determine whether Optovin-UV or ChR2 was sufficient to activate EECs, Tg(neurod1:Gcamp6f) zebrafish were used. […] The Gcamp6f signal was recorded with 488 nm laser intensity less than 0.5. The zebrafish intestinal motility is quantified through recorded image series of zebrafish intestine using the method similar as previously described (Ganz et al., 2018). […] When calculating the mean velocity, only the mean velocity magnitude was calculated, which therefore doesn't account for the movement direction. The MTrackJ FIJI plugin was used to quantify the mean velocity magnitude (Meijering et al., 2012).

c1ccc2[nH]ccc2c1 [Indole]
5-HT secretion in mouse duodenum (mouse duodenum): significant increase
pEC50 (mouse TRPA1): 3.88
Activation of mouse Trpa1 (mouse TRPA1; compared with human TRPA1): activated mouse Trpa1, but in a less potent manner
Intestinal motility on stimulation of zebrafish larvae (intestinal motility): increases intestinal motility
Zebrafish EEC activation (Gcamp6f fluorescence) (zebrafish EECs (Trpa1)): strongly activated
